In ChEMBL document CHEMBL3885881, “DrugMatrix”:

Species on record: Rattus norvegicus
Assay: DrugMatrix - Regimen: Daily Repeat
Assay type: toxicity, organism-based, Sprague-Dawley
Design: regimen Daily Repeat, gender Male, age 6-8 weeks
Details: in vivo, po, route oral GAVAGE, vehicle 100 % WATER; for ABSOLUTE BASOPHIL / ABSOLUTE EOSINOPHIL / ABSOLUTE LYMPHOCYTE / ABSOLUTE MONOCYTE / ABSOLUTE SEGMENTED NEUTROPHIL / BASOPHIL / EOSINOPHIL / ERYTHROCYTE COUNT / HEMATOCRIT / HEMOGLOBIN / LEUKOCYTE COUNT / LYMPHOCYTE / MEAN CORPUSCULAR HEMOGLOBIN / MEAN CORPUSCULAR HEMOGLOBIN CONCENTRATION / MEAN CORPUSCULAR VOLUME / MONOCYTE / NEUTROPHIL / NUCLEATED RED BLOOD CELLS / PLATELET COUNT: tissue Blood; for ALANINE AMINOTRANSFERASE / ALBUMIN / ALKALINE PHOSPHATASE / ASPARTATE AMINOTRANSFERASE / BLOOD UREA NITROGEN / CARBON DIOXIDE / CHLORIDE / CHOLESTEROL / CREATINE PHOSPHOKINASE / CREATININE / GLUCOSE / LACTATE DEHYDROGENASE / LIPASE / PHOSPHORUS / POTASSIUM / SODIUM / TOTAL BILIRUBIN / TOTAL PROTEIN / URIC ACID: tissue Plasma
[1] = 0 mg/kg, 72 h, dose level Control, time 3 day
[2] = 0 mg/kg, 120 h, dose level Control, time 5 day
[3] = 31 mg/kg, 72 h, dose level Low, time 3 day

## Nc1ccc(S(=O)(=O)Nc2nccs2)cc1 [SULFATHIAZOLE]
[1]
  ABSOLUTE BASOPHIL: 0 CELLS/uL
  ABSOLUTE EOSINOPHIL: 0 CELLS/uL
  ABSOLUTE LYMPHOCYTE: 8482.5 CELLS/uL
  ABSOLUTE MONOCYTE: 63.83 CELLS/uL
  ABSOLUTE SEGMENTED NEUTROPHIL: 887 CELLS/uL
  BASOPHIL: 0%
  EOSINOPHIL: 0%
  ERYTHROCYTE COUNT: 5.49 x10E6/uL
  HEMATOCRIT: 34.5%
  HEMOGLOBIN: 13.33 G/DL
  LEUKOCYTE COUNT: 9.43 x10E3/uL
  LYMPHOCYTE: 90.17%
  MEAN CORPUSCULAR HEMOGLOBIN: 24.3 pg
  MEAN CORPUSCULAR HEMOGLOBIN CONCENTRATION: 38.63 G/DL
  MEAN CORPUSCULAR VOLUME: 62.88 fL
  MONOCYTE: 0.67%
  NEUTROPHIL: 9.17%
  NUCLEATED RED BLOOD CELLS: 0.67 /100WBC
  PLATELET COUNT: 1022.83 x10E3/uL
  ALANINE AMINOTRANSFERASE: 50.5 u/L
  ALBUMIN: 4.08 G/DL
  ALKALINE PHOSPHATASE: 368.33 u/L
  ASPARTATE AMINOTRANSFERASE: 87.5 u/L
  BLOOD UREA NITROGEN: 12.83 mg/dL
  CARBON DIOXIDE: 32.83 mmol/L
  CHLORIDE: 99.67 MEQ/L
  CHOLESTEROL: 79.67 mg/dL
  CREATINE PHOSPHOKINASE: 585 u/L
  CREATININE: 0.22 mg/dL
  GLUCOSE: 135.67 mg/dL
  LACTATE DEHYDROGENASE: 171 u/L
  LIPASE: 9.5 u/L
  PHOSPHORUS: 11.18 mg/dL
  POTASSIUM: 6.25 MEQ/L
  SODIUM: 144.87 MEQ/L
  TOTAL BILIRUBIN: 0.2 mg/dL
  TOTAL PROTEIN: 6.08 G/DL
  URIC ACID: 0.65 mg/dL
[2]
  ABSOLUTE BASOPHIL: 0 CELLS/uL
  ABSOLUTE EOSINOPHIL: 14.5 CELLS/uL
  ABSOLUTE LYMPHOCYTE: 7596.17 CELLS/uL
  ABSOLUTE MONOCYTE: 69.67 CELLS/uL
  ABSOLUTE SEGMENTED NEUTROPHIL: 503 CELLS/uL
  BASOPHIL: 0%
  EOSINOPHIL: 0.17%
  ERYTHROCYTE COUNT: 5.49 x10E6/uL
  HEMATOCRIT: 34.72%
  HEMOGLOBIN: 13.47 G/DL
  LEUKOCYTE COUNT: 8.18 x10E3/uL
  LYMPHOCYTE: 92.17%
  MEAN CORPUSCULAR HEMOGLOBIN: 24.57 pg
  MEAN CORPUSCULAR HEMOGLOBIN CONCENTRATION: 38.82 G/DL
  MEAN CORPUSCULAR VOLUME: 63.3 fL
  MONOCYTE: 1%
  NEUTROPHIL: 6.67%
  NUCLEATED RED BLOOD CELLS: 0 /100WBC
  PLATELET COUNT: 1141 x10E3/uL
  ALANINE AMINOTRANSFERASE: 48.33 u/L
  ALBUMIN: 4.07 G/DL
  ALKALINE PHOSPHATASE: 395.67 u/L
  ASPARTATE AMINOTRANSFERASE: 85.67 u/L
  BLOOD UREA NITROGEN: 15.83 mg/dL
  CARBON DIOXIDE: 31.33 mmol/L
  CHLORIDE: 100.83 MEQ/L
  CHOLESTEROL: 62.33 mg/dL
  CREATINE PHOSPHOKINASE: 248.33 u/L
  CREATININE: 0.2 mg/dL
  GLUCOSE: 135.67 mg/dL
  LACTATE DEHYDROGENASE: 141.33 u/L
  LIPASE: 9.5 u/L
  PHOSPHORUS: 10.73 mg/dL
  POTASSIUM: 6.07 MEQ/L
  SODIUM: 145.35 MEQ/L
  TOTAL BILIRUBIN: 0.22 mg/dL
  TOTAL PROTEIN: 6.12 G/DL
  URIC ACID: 0.63 mg/dL
[3]
  ABSOLUTE BASOPHIL: 0 CELLS/uL
  ABSOLUTE EOSINOPHIL: 0 CELLS/uL
  ABSOLUTE LYMPHOCYTE: 8271.67 CELLS/uL
  ABSOLUTE MONOCYTE: 54.33 CELLS/uL
  ABSOLUTE SEGMENTED NEUTROPHIL: 707.33 CELLS/uL
  BASOPHIL: 0%
  EOSINOPHIL: 0%
  ERYTHROCYTE COUNT: 5.15 x10E6/uL
  HEMATOCRIT: 32.73%
  HEMOGLOBIN: 12.87 G/DL
  LEUKOCYTE COUNT: 9.03 x10E3/uL
  LYMPHOCYTE: 91.33%
  MEAN CORPUSCULAR HEMOGLOBIN: 25.13 pg
  MEAN CORPUSCULAR HEMOGLOBIN CONCENTRATION: 39.33 G/DL
  MEAN CORPUSCULAR VOLUME: 63.97 fL
  MONOCYTE: 0.67%
  NEUTROPHIL: 8%
  NUCLEATED RED BLOOD CELLS: 0 /100WBC
  PLATELET COUNT: 928 x10E3/uL
  ALANINE AMINOTRANSFERASE: 54.67 u/L
  ALBUMIN: 4.13 G/DL
  ALKALINE PHOSPHATASE: 375.67 u/L
  ASPARTATE AMINOTRANSFERASE: 86.67 u/L
  BLOOD UREA NITROGEN: 13.67 mg/dL
  CARBON DIOXIDE: 32 mmol/L
  CHLORIDE: 100.33 MEQ/L
  CHOLESTEROL: 70.33 mg/dL
  CREATINE PHOSPHOKINASE: 289 u/L
  CREATININE: 0.36 mg/dL
  GLUCOSE: 128.67 mg/dL
  LACTATE DEHYDROGENASE: 147.33 u/L
  LIPASE: 11.67 u/L
  PHOSPHORUS: 11.83 mg/dL
  POTASSIUM: 6.53 MEQ/L
  SODIUM: 144.47 MEQ/L
  TOTAL BILIRUBIN: 0.2 mg/dL
  TOTAL PROTEIN: 6.07 G/DL
  URIC ACID: 0.8 mg/dL
